Measurements taken from publication PMC8652888, “Angiogenesis, Anti-Tumor, and Anti-Metastatic Activity of Novel α-Substituted Hetero-Aromatic Chalcone Hybrids as Inhibitors of Microtubule Polymerization” (Frontiers in Chemistry, 2021).
Several values for one entry are separate records, joined by “and”; a condition that tells them apart may be missing. Equal values may be shown once. Read-outs that look alike come from different tables or passages of the source.

Columns and labels:
Assay type in all cases: cell-based, human
MCF-7 = experiment: Antiproliferative activity, SRB assay;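 note: proliferation of MCF7 cells quantified by sulforhodamine B staining, with optical density read at 560 nm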
Procedure: The synthesized compounds were first evaluated for their cytotoxic effect on MCF-7 (human breast adenocarcinoma), U937 (histiocytic lymphoma cancer), HepG2 (human liver cancer) cells, and MGC-803 (human gastric cancer) using the SRB and CCK-8 assay.
The primary tumor cells were purchased from a professional biomedical company. First, the primary tumor cells were incubated in a cell culture incubator at 37°C and 5% CO2. After the cell fusion reached 85%–95%, subculture was performed, and the tumor cells obtained at this time were used for subsequent related experiments. The CCK-8 method was used to inhibit the proliferation of U937 tumor cells, and the SRB method was used to inhibit the proliferation of MCF7 and HepG2 tumor cells.
Cells were distributed into 96-well plates with a density of 3 × 10^3–4 × 10^3 cells per well and incubated for 24 h in a 5% CO2 incubator at 37°C, followed by treatment with study compounds at different concentrations at 37°C for 72 h. One hundred microliters of 10% (w/v) trichloroacetic acid was added to each well, fixed at 4°C for 30 min, and dried at 65°C. Then 100 μl of 0.4% SRB was added to each well and stained on a shaker for 20 min at room temperature. The excess dye solution was washed with newly prepared 1% glacial acetic acid and dried at 65°C. One hundred fifty microliters of 10 mM unbuffered Trisbase was added to each well of the plate and shaken for 5 min to dissolve the dye. The microplate reader measured the optical density (OD) at a wavelength of 560 nm.

MCF-7 cells [1] = experiment: Apoptosis analysis, Annexin-V FITC/PI flow cytometry; conditions: for Late-apoptosis (Q2 of Annexin/PI plot), single runs / Pro-apoptosis (Q3 of Annexin/PI plot), single runs / percentage of apoptotic cells (early and late apoptosis): 48 h
Procedure: To test whether compound 7m induced reduction in cell viability was responsible for the induction of apoptosis, MCF-7 cells were stained with Annexin-V FITC/PI staining, and the number of apoptotic cells was estimated by flow cytometry.
The MCF-7 cells in 12-well plates (8 × 10^4 cells/well) were cultured for 24 h at 37°C in 5% CO2 and then incubated with 7m at concentrations of 100, 200, 400 nM, or vehicle to induce cell apoptosis for 48 h. Then the cells floating in the supernatant were combined with the adherent fraction and washed with PBS three times. The cells were incubated with Annexin V-FITC and PI for 15 min at 37°C in the dark. Apoptosis was quantified using a flow cytometer (Becton, Dickinson and Company, USA).

[2] = tested on: Caspase-3/-7/-9 and PARP in MCF-7 cells; experiment: Western blot of apoptosis-related proteins
From the text: The Caspase family proteins are considered to be critical regulators of cell apoptosis and facilitate cellular disassembly. Among them, Caspase-9 is termed as a typical caspase and is usually activated first, which in turn activates the “executioner” of apoptosis induction, in particular, Caspase-3. It is known that the […] of poly (ADP-ribose) polymerase (PARP), a downstream substrate of Caspase-3, is a common feature of nuclear fragmentation and chromatin condensation ([Hensley and Kyprianou, 2013]). Thus, the association between 7m-induced apoptosis and the expression of these proteins was investigated by Western blot analysis. MCF-7 cells were treated with 7m at different concentrations (100, 200, and 400 nM) for 48 h.
(§1) MCF-7 cells were seeded into […] dishes at a density of 6 × 10^5/dish and incubated for 24 h. After treating the cells with the compound 7m, the cells were cultured for 48 h and washed with PBS, and then the soluble and insoluble tubulin fractions were collected. Protein quantification was performed by BCA Protein Concentration Determination Kit following centrifugation at 12,000 rpm for 10 min at 4°C. Cell lysates were separated by SDS-PAGE at 80 V constant voltage for 30–40 min. […] After 5% skim milk was blocked for 1 h, the primary antibody was added and incubated overnight before being washed three times with PBST. The secondary antibody was incubated for 2 h at room temperature the next day and subsequently washed three times with PBST. Then the signal was detected with ECL.

[3] = tested on: taxol-resistant MCF7 cells (MCF7/Tax); experiment: Growth inhibition of taxol-resistant cells
MCF-7 cells [4] = experiment: Transwell Matrigel invasion assay
Procedure: In order to evaluate whether 7m could suppress migration and invasion, the MCF-7 cell culture was performed by wound healing and Transwell Matrigel assay, respectively.
The upper chamber of the Transwell chamber was filled with cells resuspended in serum-free medium, 6 × 10^4 cells per well, 100 μl per well, and the lower chamber was added with 10% FBS-containing medium prepared with different concentrations of 7m. The cells were allowed to migrate for 48 h at 37°C in an atmosphere of 5% CO2. Then the migration of cells to the underside of the filter was determined by crystal violet staining.

[5] = tested on: Cyclin B1, p-Cdc2 and P21 in MCF-7 cells; experiment: Western blot of cell cycle-related proteins; conditions: for P21, band quantification / cyclinB1, band quantification / pcdc2, band quantification: two runs
Procedure: Cell cycle regulatory proteins Cyclin B1 and Cdc2 are key proteins to control the transition from G2 to M phase through increasing the G2/M intracellular fraction in cell cycle distribution. Some agents produce cell cycle arrest by decreasing Cyclin B1 level ([Xiao et al., 2018]), while others increase the Cyclin B1 level, depending on the cell types ([Zhang et al., 2016]).
as §1

In the case of “3-(benzofuran-6-yl)-2-methyl-1-(3,4,5-trimethoxyphenyl)prop-2-en-1-one [Compound 7m]”, the IC50 (MCF-7; 72 h, triplicate, mean ± SD, read-out: IC50 ± SD, MCF-7) is reported as 183 ± 32 nM, the IC50 (MCF-7; Table 3, triplicate, read-out: IC50 ± SD, MCF7) is reported as 183 ± 32 nM and the IC50 (MCF-7; three single determinations, read-out: MCF-7 (raw data of table 3, IC50)) is reported as 146 nM and 223 nM and 180 nM. The “Late-apoptosis AVERAGE” value (MCF-7 cells [1]; 100nM) was 37.3, the “Pro-apoptosis AVERAGE” value (MCF-7 cells [1]; 100nM) was 6.425 and the “Late-apoptosis (Q2 of Annexin/PI plot), single runs” value (shortened to “Late-apoptosis … single runs”) (MCF-7 cells [1]; 100nM) was 36 and 38.6. The “Pro-apoptosis (Q3 of Annexin/PI plot), single runs” value (“Pro-apoptosis … single runs” below) (MCF-7 cells [1]; 100nM) was 7.59 and 5.26, the “percentage of apoptotic cells (early and late apoptosis)” value (“percentage of apoptotic cells” for short) (MCF-7 cells [1]; 100nM) was 44% and the “Late-apoptosis AVERAGE” value (MCF-7 cells [1]; 200nM) was 48.8. For the same substance, the “Pro-apoptosis AVERAGE” value (MCF-7 cells [1]; 200nM) was 3.01, the “Late-apoptosis … single runs” value (MCF-7 cells [1]; 200nM) was 49.3 and 48.3 and the “Pro-apoptosis … single runs” value (MCF-7 cells [1]; 200nM) was 3.29 and 2.73. The “percentage of apoptotic cells” value (MCF-7 cells [1]; 200nM) was 53%, the “Late-apoptosis AVERAGE” value (MCF-7 cells [1]; 400nM) was 52.3 and the “Pro-apoptosis AVERAGE” value (MCF-7 cells [1]; 400nM) was 4.22. For the same substance, the “Late-apoptosis … single runs” value (MCF-7 cells [1]; 400nM) was 52.8 and 51.8, the “Pro-apoptosis … single runs” value (MCF-7 cells [1]; 400nM) was 4.66 and 3.78 and the “percentage of apoptotic cells” value (MCF-7 cells [1]; 400nM) was 57%. The “Caspase3, band quantification” value ([2]; 100nM, two runs) was 1.6879 and 1.67, the “Caspase7, band quantification” value ([2]; 100nM, two runs) was 1.25 and 1.4891 and the “Caspase9, band quantification” value ([2]; 100nM, two runs) was 0.8806. For the same substance, the “Cleaved caspase 3, band quantification” value ([2]; 100nM, two runs) was 0.4362 and 0.4615, the “Cleaved caspase 7, band quantification” value ([2]; 100nM, two runs) was 0.3077 and 0.3272 and the “Cleaved caspase 9, band quantification” value ([2]; 100nM, two runs) was 0.7024 and 0.6835. The “Cleaved parp, band quantification” value ([2]; 100nM, two runs) was 0.5428 and 0.547, the “Caspase3, band quantification” value ([2]; 200nM, two runs) was 1.615 and 1.544 and the “Caspase7, band quantification” value ([2]; 200nM, two runs) was 1.204 and 1.374. For the same substance, the “Caspase9, band quantification” value ([2]; 200nM, two runs) was 0.8807 and 0.8294, the “Cleaved caspase 3, band quantification” value ([2]; 200nM, two runs) was 0.3538 and 0.3842 and the “Cleaved caspase 7, band quantification” value ([2]; 200nM, two runs) was 0.3681 and 0.3821. The “Cleaved caspase 9, band quantification” value ([2]; 200nM, two runs) was 0.8845 and 0.8641, the “Cleaved parp, band quantification” value ([2]; 200nM, two runs) was 0.6141 and 0.6251 and the “PARP, band quantification” value ([2]; 200nM, two runs) was 0.2886 and 0.4533. The “Caspase3, band quantification” value ([2]; 400nM, two runs) was 1.359 and 1.362, the “Caspase7, band quantification” value ([2]; 400nM, two runs) was 1.134 and 1.286 and the “Caspase9, band quantification” value ([2]; 400nM, two runs) was 0.8246 and 0.7921. The “Cleaved caspase 3, band quantification” value ([2]; 400nM, two runs) was 0.6252 and 0.6493, the “Cleaved caspase 7, band quantification” value ([2]; 400nM, two runs) was 0.3556 and 0.4028 and the “Cleaved caspase 9, band quantification” value ([2]; 400nM, two runs) was 0.8063 and 0.765. The “Cleaved parp, band quantification” value ([2]; 400nM, two runs) was 0.6767 and 0.7365, the “activation of Caspase-3/-7/-9” value ([2]; 100, 200, 400 nM, 48 h) was “concentration-dependent activation” and the “cleavage of PARP” value ([2]; 100, 200, 400 nM, 48 h) was “significant cleavage of PARP”. For the same substance, the Resistant fold ([3]; (IC50 MCF7/Tax)/(IC50 MCF7)) was 1.2, the IC50 ([3]; three single determinations, read-out: MCF-7/Taxol (raw data of table 3, IC50)) was 242 nM and 181 nM and 216 nM and the IC50 ([3]; triplicate, read-out: IC50 ± SD, MCF7/Tax) was 213 ± 26 nM. The MCF-7 cells invasion (MCF-7 cells [4]) was “hinder the MCF-7 cells invasion in a dose-dependent manner”, the “P21, band quantification” value ([5]; 100nM) was 0.4949 and 0.5407 and the “cyclinB1, band quantification” value ([5]; 100nM) was 1.376 and 1.378. For the same substance, the “pcdc2, band quantification” value ([5]; 100nM) was 0.4445 and 0.4619, the “P21, band quantification” value ([5]; 200nM) was 0.4098 and 0.48 and the “cyclinB1, band quantification” value ([5]; 200nM) was 1.5822 and 1.545. For the same substance, the “pcdc2, band quantification” value ([5]; 200nM) was 0.4706 and 0.4291, the “P21, band quantification” value ([5]; 400nM) was 0.006743 and 0.008008 and the “cyclinB1, band quantification” value ([5]; 400nM) was 1.8972 and 1.928. For the same substance, the “pcdc2, band quantification” value ([5]; 400nM) was 0.2956 and 0.3089, the “Cyclin B1 expression” value ([5]; 100, 200, 400 nM) was “overexpressed” and the p-Cdc2 protein level ([5]; 100, 200, 400 nM) was “dose-dependently decreased”.
